Tests used:
HCT116 cells = assay: IL2 ELISA, dependence of DD-IL2 levels on Shield-1 dose; format: cell-based; settings: 96-well plate, varying concentrations of Shield-1, DD-IL2 construct, read-out: ECK of Shield-1 (IL2 levels by IL2 ELISA)
Source text: FKBP (L106P) and ecDHFR (R12Y, Y100I) are well-characterized destabilizing domains which can confer instability to fusion partners (e.g., a POI). The instability is reversed by a synthetic ligand named Shield-1 that binds to FKBP; TMP that binds to DHFR. An IL2 polypeptide was linked to either FKBP (L106P) or ecDHFR (R12Y, Y100I). IL2 constructs were cloned into pLVX-IRES-Puro lentiviral vectors. An IL2 signal sequence was inserted at the N terminus of the construct.
To evaluate dependence of IL2 levels on Shield-1 dose, HCT116 cells were plated onto a 96-well plate and treated with varying concentrations of Shield-1. Media was then collected from cells and IL2 levels were quantified using IL2 ELISA (FIG. 20). IL2 increased with increase in Shield-1 concentration and plateaued at higher Shield-1 dose levels. The ECK of Shield-1 was determined to be 50 nM

HEK293T cells = assay: IL12-p40 ELISA, Shield-1 dose and cell number dependent IL12 induction; format: cell-based, human; settings: OT-IL12-004 transduced HEK293T cells, 24 hours
Protocol: Following overnight incubation, cells were treated with growth medium containing 0 to 10 μM Shield-1 for 24 hours. Media was then collected, diluted 400 fold and FKBP-IL12 levels were measured using IL12-p40 ELISA.

HCT-116 cells [1] = assay: Luciferase expression by western blotting; format: cell-based; settings: HCT-116 stably transduced; 1 μM Shield-1 or 10 μM Trimethoprim or vehicle, 24 hours; FIG. 22A
Protocol: DD regulated luciferase can be used to track cells in vivo e.g. T cells. Firefly luciferase or Renilla luciferase may be utilized as the payload. HCT-116 cells were stably transduced with the constitutive (OT-RLuc-001) or DD regulated constructs (OT-RLuc-002, OT-RLuc-003, OT-RLuc-004, OT-RLuc-005 and OT-RLuc-006). Cells were treated with 1 μM Shield-1, or 10 μM Trimethoprim or vehicle control for 24 hours and luciferase expression and activity was measured. Luciferase expression was measured via western blotting using Anti-Renilla luciferase and anti-Firefly luciferase antibodies (Abcam, Cambridge, UK). Blots were also probed with anti-GAPDH antibody to ensure even protein loading in all samples.

HEK-Blue sensor cells = assay: HEK-Blue sensor cell assay for functional IL12 (Quanti-Blue); format: cell-based; settings: HEK 293T transfected with 200 ng plasmid, 10 μM Shield-1 24 hours; media on HEK Blue sensor cells; FIG. 21A
Protocol: HEK-Blue sensor cells (InvivoGen, San Diego, Calif.) were utilized to evaluate whether DD regulated IL12 is capable of regulating signaling downstream of IL12. In these cells, the IL12 receptor, STAT4 and downstream transcriptional elements are tied to a reporter gene such that IL12 signaling can be monitored. To evaluate production of functional IL12, one million HEK 293T were transfected with 200 ng of OT-IL-12-003 plasmid using Lipofectamine 2000 (Thermo Fisher Scientific, Waltham, Mass.). 48 hours after transfection, cells were treated with growth media containing 10 μM Shield-1, incubated for another 24 hours, following which, media was collected. […] After overnight incubation, 20 μl media was removed from each well and incubated with 180 μl Quanti-Blue reagent (InvivoGen, San Diego, Calif.) for 30 minutes at 37° C. Absorption was measured at 620 nm using a spectrophotometer. […] Functional IL12 concentrations were determined by comparing the optical density of each sample with IL12 standard curve.
The dependence of functional IL12 production on the dose of Shield-1 used was also evaluated. […] Absorption was measured at 620 nm using a spectrophotometer. […] Functional IL12 concentrations were determined by comparing the optical density of each sample with IL12 standard curve.

HCT-116 cells [2] = assay: Luciferase activity, luminescence reading; format: cell-based; settings: 1 μM Shield-1 or 10 μM Trimethoprim or vehicle, 24 hours; coelentrazine or luciferin substrate; FIG. 22B
Protocol: Ligand dependent activity of Renilla and firefly luciferase constructs was also measured in using coelentrazine and luciferin substrates respectively. Cells were treated with 1 μM Shield-1, or 10 μM Trimethoprim or vehicle control for 24 hours, lysed with assay lysis buffer and incubated with the luciferase substrate. Luciferase activity was measured as luminescence reading using a luminometer and the values were compared to control comprising of lysis buffer and substrate.

Row | Molecule | Luciferase expression, ligand dependent stabilization (western blotting) (HCT-116 cells [1]) | other results
1 | CC[C@H](C(=O)N1CCCC[C@H]1C(=O)O[C@H](CCc1ccc(OC)c(OC)c1)c1cccc(OCCN2CCOCC2)c1)c1cc(OC)c(OC)c(OC)c1 [Shield-1] | – | EC50 (HCT116 cells): 50 nM; Shield-1 dose up to which IL12 induction increased, then plateaued (HEK293T cells): 1 µM
2 | OT-FLuc-002: FKBP (F36V, 106P); linker (EF); Fluc; SEQ ID NO 213373 | modest stabilization | –
3 | OT-IL12-003: p40 signal sequence; FKBP (F36V, L106P); furin (SARNRQKRS); p40; linker ((G4S)3); p35; SEQ ID NO 213301 | – | Media dilution at which measurable levels of functional IL12 were reached (HEK-Blue sensor cells): 640 fold
4 | OT-RLuc-003: FKBP (F36V, 106P); linker (SG); Renilla Luc; SEQ ID NO 213374 | strong Shield-1 dependent stabilization | –
5 | OT-RLuc-005: Renilla Luc; linker (SG); FKBP (E31G, F36V, R71G, K105E); SEQ ID NO 213376 (protein) MTSKVYDPEQRKRMITGPQWWARCKQMNVLDSFINYYDSEKHAENAVIFLHGNAASSYLWRHVVPHIEPVARCIIPDLIGMGKSGKSGNGSYRLLDHYKYLTAWFELLNLPKKIIFVGHDWGACLAFHYSYEHQDKIKAIVHAESVVDVIESWDEWPDIEEDIALIKSEEGEKMVLENNFFVETMLPSKIMRKLEPEEFAAYLEPFKEKGEVRRPTLSWPREIPLVKGGKPDVVQIVRNYNAYLRASDDLPKMFIESDPGFFSNAIVEGAKKFPNTEFVKVKGLHFSQEDAPDEMGKYIKSFVERVLKNEQSGGVQVETISPGDGRTFPKRGQTCVVHYTGMLGDGKKVDSSRDRNKPFKFMLGKQEVIRGWEEGVAQMSVGQGAKLTISPDYAYGATGHPGIIPPHATLVFDVELLELE | modest stabilization | –
6 | OT-RLuc-004: ecDHFR (R12Y, Y100I); linker (SG); Renilla Luc; SEQ ID NO 213375 (protein) MISLIAALAVDYVIGMENAMPWNLPADLAWFKRNTLNKPVIMGRHTWESIGRPLPGRKNIILSSQPGTDDRVTWVKSVDEAIAACGDVPEIMVIGGGRVIEQFLPKAQKLYLTHIDAEVEGDTHFPDYEPDDWESVFSEFHDADAQNSHSYCFEILERRSGTSKVYDPEQRKRMITGPQWWARCKQMNVLDSFINYYDSEKHAENAVIFLHGNAASSYLWRHVVPHIEPVARCIIPDLIGMGKSGKSGNGSYRLLDHYKYLTAWFELLNLPKKIIFVGHDWGACLAFHYSYEHQDKIKAIVHAESVVDVIESWDEWPDIEEDIALIKSEEGEKMVLENNFFVETMLPSKIMRKLEPEEFAAYLEPFKEKGEVRRPTLSWPREIPLVKGGKPDVVQIVRNYNAYLRASDDLPKMFIESDPGFFSNAIVEGAKKFPNTEFVKVKGLHFSQEDAPDEMGKYIKSFVERVLKNEQ | modest stabilization | –
7 | OT-RLuc-006: Renilla Luc; linker (SG); ecDHFR (R12Y, Y100I); SEQ ID NO 213377 (protein) MTSKVYDPEQRKRMITGPQWWARCKQMNVLDSFINYYDSEKHAENAVIFLHGNAASSYLWRHVVPHIEPVARCIIPDLIGMGKSGKSGNGSYRLLDHYKYLTAWFELLNLPKKIIFVGHDWGACLAFHYSYEHQDKIKAIVHAESVVDVIESWDEWPDIEEDIALIKSEEGEKMVLENNFFVETMLPSKIMRKLEPEEFAAYLEPFKEKGEVRRPTLSWPREIPLVKGGKPDVVQIVRNYNAYLRASDDLPKMFIESDPGFFSNAIVEGAKKFPNTEFVKVKGLHFSQEDAPDEMGKYIKSFVERVLKNEQSGISLIAALAVDYVIGMENAMPWNLPADLAWFKRNTLNKPVIMGRHTWESIGRPLPGRKNIILSSQPGTDDRVTWVKSVDEAIAACGDVPEIMVIGGGRVIEQFLPKAQKLYLTHIDAEVEGDTHFPDYEPDDWESVFSEFHDADAQNSHSYCFEILERR | modest stabilization | –
8 | OT-RLuc-001: Renilla Luc (constitutive); SEQ ID NO 213372 (protein) MTSKVYDPEQRKRMITGPQWWARCKQMNVLDSFINYYDSEKHAENAVIFLHGNAASSYLWRHVVPHIEPVARCIIPDLIGMGKSGKSGNGSYRLLDHYKYLTAWFELLNLPKKIIFVGHDWGACLAFHYSYEHQDKIKAIVHAESVVDVIESWDEWPDIEEDIALIKSEEGEKMVLENNFFVETMLPSKIMRKLEPEEFAAYLEPFKEKGEVRRPTLSWPREIPLVKGGKPDVVQIVRNYNAYLRASDDLPKMFIESDPGFFSNAIVEGAKKFPNTEFVKVKGLHFSQEDAPDEMGKYIKSFVERVLKNEQ | expression of Renilla luciferase both in the presence and absence of ligand | Luciferase activity (luminescence reading) (HCT-116 cells [2]): high luciferase activity both in the presence and absence of ligand

Source: patent US11446398B2, “Regulated biocircuit systems” (Obsidian Therapeutics, Inc., priority 2016, dated 2022)
